Broadly, the IC50 is the concentration needed to halve the response being measured. A lower IC50 goes with inhibition by little substance.

Structures can show the parent of a compound that is named as a salt. Bounds are passed on as bounds.

Sequence of full-length human PRMT8 isoform 1 (Q9NR22 whole entry, canonical isoform): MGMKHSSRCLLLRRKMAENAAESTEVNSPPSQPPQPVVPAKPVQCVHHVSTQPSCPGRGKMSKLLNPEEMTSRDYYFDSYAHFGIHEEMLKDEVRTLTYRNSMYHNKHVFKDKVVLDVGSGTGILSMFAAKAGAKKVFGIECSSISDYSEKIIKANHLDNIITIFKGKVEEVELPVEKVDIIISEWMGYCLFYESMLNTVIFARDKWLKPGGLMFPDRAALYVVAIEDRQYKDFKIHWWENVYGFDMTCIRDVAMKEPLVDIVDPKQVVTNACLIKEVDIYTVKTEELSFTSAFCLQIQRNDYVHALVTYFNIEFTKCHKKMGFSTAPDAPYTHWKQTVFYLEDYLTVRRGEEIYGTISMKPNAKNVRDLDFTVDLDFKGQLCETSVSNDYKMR

The target in one experiment is full-length human PRMT8 isoform 1 (Homo sapiens, UniProt Q9NR22). Kind of experiment: PRMT8 biochemical assay (3H-SAM Flashplate, histone H4 31-45 peptide). Particulars: 1.5 nM PRMT8, 30 min preincubation, 150 nM peptide. From the text:
S-adenosylmethionine (SAM), S-adenosylhomocysteine (SAH), bicine, Tween20, dimethylsulfoxide (DMSO), bovine skin gelatin (BSG), isopropyl-β-D-thiogalactopyranoside (IPTG), and Tris(2-carboxyethyl)phosphine hydrochloride solution (TCEP) were purchased from Sigma-Aldrich at the highest level of purity possible. ^3H-SAM was purchase from American Radiolabeled Chemicals with a specific activity of 80 Ci/mmol. 384-well streptavidin Flashplates were purchased from PerkinElmer.
Peptide representative of human histone H4 residues 31-45 was synthesized with an N-terminal linker-affinity tag motif and a C-terminal amide cap by 21st Century Biochemicals. The peptide was purified by high-performance liquid chromatography (HPLC) to greater than 95% purity and confirmed by liquid chromatography mass spectrometry (LC-MS). The sequence was Biot-Ahx-[…]-amide (SEQ ID NO.:8).
The resulting construct encodes an N-terminal GST tag and a thrombin cleavage sequence
E. coli (BL21(DE3) Gold, Stratagene) made competent by the CaCl2 method were transformed with the PRMT8 construct and ampicillin selection. Protein over-expression was accomplished by growing the PRMT8 expressing E. coli clone and inducing expression with 0.3 mM IPTG at 16° C. The culture was grown for 12 hours, harvested by centrifugation, and stored at −80° C. for purification.
GST-tagged PRMT8 was eluted with 50 mM Tris, 2 mM glutathione, pH 7.8. Pooled fractions were cleaved by thrombin (10U) and dialysed in buffer A. GST was removed by reloading the cleaved protein sample onto glutathione sepharose column and PRMT8 was collected in the flow-through fractions. PRMT8 was purified further by ceramic hydroxyapatite chromatography. The column was washed with 50 mM phosphate buffer, 100 mM NaCl, 5% glycerol, 5 mM […], pH 7.8 and PRMT8 was eluted by 100 mM phosphate in the same buffer. Protein was concentrated and buffer was exchanged to 50 mM Tris, 300 mM NaCl, 10% glycerol, 5 mM β-mercaptoethanol, pH 7.8 by ultrafiltration. The purity of recovered protein was 89%.
General Procedure for PRMT8 Enzyme Assays on Peptide Substrates.
The assays were all performed in a buffer consisting of 20 mM Bicine (pH=7.6), 1 mM TCEP, 0.005% BSG, and 0.002% Tween 20, prepared on the day of use. Compounds in 100% DMSO (1 ul) were spotted into a polypropylene 384-well V-bottom plates (Greiner) using a Platemate Plus outfitted with a 384-channel head (Thermo Scientific). DMSO (1 ul) was added to Columns 11, 12, 23, 24, rows A-H for the maximum signal control and 1 ul of SAH, a known product and inhibitor of PRMT8, was added to columns 11, 12, 23, 24, rows I-P for the minimum signal control. A cocktail (40 ul) containing the PRMT8 enzyme was added by Multidrop Combi (Thermo-Fisher). The compounds were allowed to incubate with PRMT8 for 30 min at room temperature, then a cocktail (10 ul) containing ^3H-SAM and peptide was added to initiate the reaction (final volume=51 ul). The final concentrations of the components were as follows: PRMT8 was 1.5 nM, ^3H-SAM was 50 nM, non-radiolabeled SAM was 550 nM, peptide was 150 nM, SAH in the minimum signal control wells was 1 mM, and the DMSO concentration was 2%. The assays were stopped by the addition of non-radiolabeled SAM (10 ul) to a final concentration of 400 uM, which dilutes the ^3H-SAM to a level where its incorporation into the peptide substrate is no longer detectable. 50 ul of the reaction in the 384-well polypropylene plate was then transferred to a 384-well Flashplate and the biotinylated peptides were allowed to bind to the streptavidin surface for at least 1 hour before being washed once with 0.1% Tween20 in a Biotek ELx405 plate washer. The plates were then read in a PerkinElmer TopCount plate reader to measure the quantity of ^3H-labeled peptide bound to the Flashplate surface, measured as disintegrations per minute (dpm) or alternatively, referred to as counts per minute (cpm). […]
`CCC1(CC)C[C@]2(CC[C@@H](c3n[nH]cc3CN(C)CCNC)CC2)OC1=O` [compound 34, (5r,8r)-3,3-diethyl-8-(4-((methyl(2-(methylamino)ethyl)amino)methyl)-1H-pyrazol-3-yl)-1-oxaspiro[4.5]decan-2-one] returned an IC50 of 146 nM. That is a sub-micromolar value. In the case of `CNCCN(C)Cc1nn[nH]c1[C@H]1CC[C@@]2(CC1)CC(C)(C)CO2` [compound 67], the 50% inhibitory concentration (IC50) was found to be 19.8 nM. The same measure, in the same setting: next, `CNCCN(C)Cc1nn[nH]c1[C@H]1CC[C@]2(CC1)CC(C)(C)CO2` [compound 89]: 137 nM. Still for that read-out and setting: next, `CC[C@]12CC[C@](CC)(C[C@H](c3n[nH]cc3CN(C)CCNC)C1)O2` [compound 37, N1-((3-((1R,3r,5S)-1,5-diethyl-8-oxabicyclo[3.2.1]octan-3-yl)-1H-pyrazol-4-yl)methyl)-N1,N2-dimethylethane-1,2-diamine]: 45.5 nM; `CNCCN(C)Cc1c[nH]nc1C1C[C@H](C(=O)NCCOC)C(C)(C)[C@H](C(=O)NCCOC)C1` (stereo partly drawn) [compound 13]: above 10000 nM. The same measure, in the same setting: next, `CCN(C)C(=O)C1CC(c2n[nH]cc2CN(C)CCNC)CC(C(=O)NCCC(C)C)C1(C)C` (stereo not drawn) [compound 14, N1-ethyl-N3-isopentyl-N1,2,2-trimethyl-5-(4-((methyl(2-(methylamino)ethyl)amino)methyl)-1H-pyrazol-3-yl)cyclohexane-1,3-dicarboxamide]: above 10000 nM; `CNCCN(C)Cc1c[nH]nc1[C@H]1CC[C@@]2(CCN(CCC(C)C)C2=O)CC1` [compound 11, (5r,8r)-2-isopentyl-8-(4-((methyl(2-(methylamino)ethyl)amino)methyl)-1H-pyrazol-3-yl)-2-azaspiro[4.5]decan-1-one]: 10.2 nM; `CNCCN(C)Cc1sc(C)nc1[C@H]1CC[C@@]2(CC1)CC(C)(C)CO2` [compound 78]: 33.8 nM. Turning to `CNCCN(C)Cc1c(C)noc1[C@H]1CC[C@@]2(CC1)CC(C)(C)CO2` [compound 113], the IC50 was 51.5 nM.

For the molecule `CNCCN(C)Cc1nccn1[C@H]1CC[C@]2(CC1)CC(C)(C)CO2` [compound 91], 1180 nM corresponded to half-maximal inhibition (IC50). The same measure, in the same setting: to `Cc1[nH]nc([C@H]2CC[C@@]3(CC2)CC(C)(C)CO3)c1CN(C)CCN` [compound 51, N1-((3-((5s,8s)-3,3-dimethyl-1-oxaspiro[4.5]decan-8-yl)-5-methyl-1H-pyrazol-4-yl)methyl)-N1-methylethane-1,2-diamine] belongs 14.2 nM. `CNCCN(C)Cc1nn(C)cc1[C@H]1CC[C@]2(CC1)CC(C)(C)CO2` [compound 103] had an IC50 of 42.7 nM. Regarding `CNCCN(C)Cc1c(C)noc1[C@H]1CC[C@]2(CC1)CC(C)(C)CO2` [compound 114], half-maximal inhibition (IC50) was put at 68 nM. On the same count and under the same terms, to `CCOCC1(COCC)CCC(c2n[nH]cc2CN(C)CCN(C)C)CC1` [compound 121] belongs 58.2 nM. Same read-out and setting: next, `CNCCN(C)Cc1c[nH]nc1C1CCC(OCCCOC)C2(CCCC2)C1` (mixture of isomers) [compound 19, N1-((3-(10-(3-methoxypropoxy)spiro[4.5]decan-7-yl)-1H-pyrazol-4-yl)methyl)-N1,N2-dimethylethane-1,2-diamine dihydrochloride]: 30.1 nM; `CNCCN(C)Cc1c[nH]nc1[C@H]1CC[C@@]2(CCCOC2)CC1` [compound 5, N1-((3-((6r,9r)-2-oxaspiro[5.5]undecan-9-yl)-1H-pyrazol-4-yl)methyl)-N1,N2-dimethylethane-1,2-diamine]: 17.7 nM.

Turning to `CN(CCN)Cc1nn(C)cc1[C@H]1CC[C@@]2(CC1)CC(C)(C)CO2` [compound 80], the IC50 was 12.1 nM. On the same count and under the same terms, next, `CNCCN(C)Cc1c[nH]nc1[C@H]1CC[C@]2(CCCOC2)CC1` [compound 4, N1-((3-((6s,9s)-2-oxaspiro[5.5]undecan-9-yl)-1H-pyrazol-4-yl)methyl)-N1,N2-dimethylethane-1,2-diamine]: 16 nM; `CNCCN(C)Cc1nocc1[C@H]1CC[C@@]2(CC1)CC(C)(C)CO2` [compound 117]: 40.8 nM; `CN(CCN)Cc1c[nH]nc1[C@H]1CC[C@@]2(CC1)CC(C)(C)CO2` [compound 105]: 9.13 nM. Molecule `CNCCN(C)Cc1c[nH]nc1C1CC(COCC2CC2)CC(COCC2CC2)C1` (stereo not drawn) [compound 2] gave an IC50 of 365 nM. Same read-out and setting: next, `CNCCNCc1c[nH]nc1[C@H]1CC[C@]2(CC1)CC(C)(C)CO2` [compound 29, N1-((3-((5r,8r)-3,3-dimethyl-1-oxaspiro[4.5]decan-8-yl)-1H-pyrazol-4-yl)methyl)-N2-methylethane-1,2-diamine]: 258 nM; `CNCCN(C)Cc1c[nH]nc1C1CCC2(CCC(OC)CC2)CC1` (stereo not drawn) [compound 9, N1-((3-(9-methoxyspiro[5.5]undecan-3-yl)-1H-pyrazol-4-yl)methyl)-N1,N2-dimethylethane-1,2-diamine]: 11.1 nM; `CNCCN(C)Cc1c[nH]nc1C1C[C@@H](C(=O)N(C)CC(C)C)C(C)(C)[C@H](C(=O)N(C)CC(C)C)C1` (stereo partly drawn) [compound 12]: above 10000 nM.

The molecule `CCC1(CC)CC2(CCC(c3n[nH]cc3CN(C)CCNC)CC2)N(C)C1=O` (stereo not drawn) [compound 22, 3,3-diethyl-1-methyl-8-(4-((methyl(2-(methylamino)ethyl)amino)methyl)-1H-pyrazol-3-yl)-1-azaspiro[4.5]decan-2-one] yielded an IC50 of 20.3 nM. This counts as double-digit nanomolar. The same measure, in the same setting: next, `CNCCN(C)Cc1c[nH]nc1[C@H]1CC[C@]2(CCCCO2)CC1` [compound 127, methyl([2-[methyl([3-[(6s,9r)-1-oxaspiro[5.5]undecan-9-yl]-1H-pyrazol-4-yl]methyl)amino]ethyl])amine bistrifluoroacetic acid salt]: 16.2 nM; `CCCOCC1(COCCC)CCC(c2n[nH]cc2CN(C)CCNC)CC1` [compound 36, N^1-((3-(4,4-bis(propoxymethyl)cyclohexyl)-1H-pyrazol-4-yl)methyl)-N^1,N^2-dimethylethane-1,2-diamine]: 12.4 nM.

On to `CNCCN(C)Cc1c[nH]nc1[C@H]1CC[C@H](COCC(F)(F)F)CC1` [compound 24, N1,N2-dimethyl-N1-((3-((1r,4r)-4-((2,2,2-trifluoroethoxy)methyl)cyclohexyl)-1H-pyrazol-4-yl)methyl)ethane-1,2-diamine], for which the IC50 worked out at 18.3 nM. `CNCCN(C)Cc1c[nH]nc1[C@@H]1CC[C@H](OCCCOC)C2(CCCC2)C1` (racemic) [compound 27, N1-((3-((7R,10S)-10-(3-methoxypropoxy)spiro[4.5]decan-7-yl)-1H-pyrazol-4-yl)methyl)-N1,N2-dimethylethane-1,2-diamine] displayed an IC50 of 31.2 nM. Against the preceding molecule, the IC50 is about 1.7-fold higher. In turn, `CNCCN(C)Cc1c(C)[nH]nc1[C@H]1CC[C@@]2(CC1)CC(C)(C)CO2` [compound 57] showed a half-maximal inhibitory concentration (IC50) of 32.7 nM. The same measure, in the same setting: to `CNCCN(C)Cc1scnc1[C@H]1CC[C@]2(CC1)CC(C)(C)CO2` [compound 84] belongs 24.2 nM. On the same count and under the same terms, next, `CNCCNCc1c[nH]nc1[C@H]1CC[C@@]2(CC1)CC(C)(C)CO2` [compound 28, N1-((3-((5s,8s)-3,3-dimethyl-1-oxaspiro[4.5]decan-8-yl)-1H-pyrazol-4-yl)methyl)-N2-methylethane-1,2-diamine]: 20.7 nM.

The experiment is the same for the next values; noted with them: […] PRMT8, 30 min preincubation, 150 nM peptide.
`CNCCN(C)Cc1nn(C)nc1C1CCC2(CC1)CC(C)(C)CO2` (stereo not drawn) [compound 86]: 49.9 nM corresponded to half-maximal inhibition (IC50).
